Assay results: patent US20230011571A1, “SMALL MOLECULE FURIN INHIBITORS FOR TREATING INFECTIOUS DISEASES” (BP Asset V, Inc., priority 2019, published 2023)

What was measured:
Assay type in all cases: cell-based
dengue virus (DENV) = assay: microbe, parasite or virus in culture; conditions: Dengue virus, Vero, 120 h, read-out: Percent viral inhibition DENY
Marburg virus (MARV) = assay: organism not typed; conditions: Vero, 72 h, read-out: Percent viral inhibition MARV
[1] = system: Chikungunya virus (CHIKV); assay: microbe, parasite or virus in culture; conditions: Chikungunya virus, Vero, 48 h, read-out: Percent viral inhibition CHKV

Row | SMILES | inhibition at 1 µM (dengue virus (DENV)) | inhibition at 1 µM (Marburg virus (MARV)) | inhibition at 1 µM [1]
1 | CN1CCN(c2ncc(Oc3cc(CN4CCC(CC(=O)O)CC4)cc(-c4cc(Cl)cc(Cl)c4)n3)cn2)CC(O)C1 (stereo not drawn) [Example 226, 2-(1-((2-(3,5-dichlorophenyl)-6-((2-(6-hydroxy-4-methyl-1,4-diazepan-1-yl)pyrimidin-5-yl)oxy)pyridin-4-yl)methyl)piperidin-4-yl)acetic acid] | 58.9% | 41.4% | 26.7%
2 | CN(C)C1CCN(c2ncc(Oc3cc(CN4CCC(CC(=O)O)CC4)cc(-c4cc(Cl)cc(Cl)c4)n3)cn2)CC1 [Example 227, 2-(1-((2-(3,5-dichlorophenyl)-6-((2-(4-(dimethylamino)piperidin-1-yl)pyrimidin-5-yl)oxy)pyridin-4-yl)methyl)piperidin-4-yl)acetic acid] | 54% | 54.5% | 40.5%
3 | CN1C2CC1CN(c1ncc(Oc3cc(CN4CCC(CC(=O)O)CC4)cc(-c4cc(Cl)cc(Cl)c4)n3)cn1)C2 [Example 228, 2-(1-((2-(3,5-dichlorophenyl)-6-((2-(6-methyl-3,6-diazabicyclo[3.1.l]heptan-3-yl)pyrimidin-5-yl)oxy)pyridin-4-yl)methyl)piperidin-4-yl)acetic acid] | 31.9% | 36.2% | 17.3%
4 | O=C(O)CC1CCN(Cc2cc(Oc3cnc(N4CCN(CC5(O)CC5)CC4)nc3)nc(-c3cc(Cl)cc(Cl)c3)c2)CC1 [Example 229, 2-(1-((2-(3,5-dichlorophenyl)-6-((2-(4-((1-hydroxycyclopropyl)methyl)piperazin-1-yl)pyrimidin-5-yl)oxy)pyridin-4-yl)methyl)piperidin-4-yl)acetic acid] | 54.8% | 23.7% | 43.2%
5 | CN1C[C@@H]2C[C@H]1CN2c1ncc(Oc2cc(CN3CCC(CC(=O)O)CC3)cc(-c3cc(Cl)cc(Cl)c3)n2)cn1 [Example 231, 2-(1-((2-(3,5-dichlorophenyl)-6-((2-((1S,4S)-5-methyl-2,5-diazabicyclo[2.2.1]heptan-2-yl)pyrimidin-5-yl)oxy)pyridin-4-yl)methyl)piperidin-4-yl)acetic acid] | 44.2% | 66.6% | 25.8%
6 | CCN1C[C@@H]2C[C@H]1CN2c1ncc(Oc2cc(CN3CCC(CC(=O)O)CC3)cc(-c3cc(Cl)cc(Cl)c3)n2)cn1 [Example 232, 2-(1-((2-(3,5-dichlorophenyl)-6-((2-((1S,4S)-5-ethyl-2,5-diazabicyclo[2.2.1]heptan-2-yl)pyrimidin-5-yl)oxy)pyridin-4-yl)methyl)piperidin-4-yl)acetic acid] | 19.5% | 43.4% | 37.1%
7 | O=C(O)CC1CCN(Cc2cc(Oc3cnc(N4CCN(C5CC5)CC4)nc3)nc(-c3cc(Cl)cc(Cl)c3)c2)CC1 [Example 233, 2-(1-((2-((2-(4-cyclopropylpiperazin-1-yl)pyrimidin-5-yl)oxy)-6-(3,5-dichlorophenyl)pyridin-4-yl)methyl)piperidin-4-yl)acetic acid] | 55.7% | 57.1% | 16.3%
8 | CCN1CCN(c2ncc(Oc3cc(CN4CCC(CC(=O)O)CC4)cc(-c4cc(Cl)cc(Cl)c4)n3)cn2)CC1 [Example 234, 2-(1-((2-(3,5-dichlorophenyl)-6-((2-(4-ethylpiperazin-1-yl)pyrimidin-5-yl)oxy)pyridin-4-yl)methyl)piperidin-4-yl)acetic acid] | 36.9% | 49.1% | 26.7%
9 | CC(C)N1CCN(c2ncc(Oc3cc(CN4CCC(CC(=O)O)CC4)cc(-c4cc(Cl)cc(Cl)c4)n3)cn2)CC1 [Example 235, 2-(1-((2-(3,5-dichlorophenyl)-6-((2-(4-isopropylpiperazin-1-yl)pyrimidin-5-yl)oxy)pyridin-4-yl)methyl)piperidin-4-yl)acetic acid] | 0% | 69.8% | 27.4%
10 | O=C(O)CC1CCN(Cc2cc(Oc3cnc(N4CCN(CCF)CC4)nc3)nc(-c3cc(Cl)cc(Cl)c3)c2)CC1 [Example 236, 2-(1-((2-(3,5-dichlorophenyl)-6-((2-(4-(2-fluoroethyl)piperazin-1-yl)pyrimidin-5-yl)oxy)pyridin-4-yl)methyl)piperidin-4-yl)acetic acid] | 64.5% | 68.5% | 39.8%
11 | CC(O)CCN1CCN(c2ncc(Oc3cc(CN4CCC(CC(=O)O)CC4)cc(-c4cc(Cl)cc(Cl)c4)n3)cn2)CC1 (stereo not drawn) [Example 237, 2-(1-((2-(3,5-dichlorophenyl)-6-((2-(4-(3-hydroxybutyl)piperazin-1-yl)pyrimidin-5-yl)oxy)pyridin-4-yl)methyl)piperidin-4-yl)acetic acid] | 52.1% | 37.7% | 37%
12 | CC(CCO)N1CCN(c2ncc(Oc3cc(CN4CCC(CC(=O)O)CC4)cc(-c4cc(Cl)cc(Cl)c4)n3)cn2)CC1 (stereo not drawn) [Example 238, 2-(1-((2-(3,5-dichlorophenyl)-6-((2-(4-(4-hydroxybutan-2-yl)piperazin-1-yl)pyrimidin-5-yl)oxy)pyridin-4-yl)methyl)piperidin-4-yl)acetic acid] | 66.1% | 56.8% | 35.8%
13 | CC(CCN(C)C)N1CCN(c2ncc(Oc3cc(CN4CCC(CC(=O)O)CC4)cc(-c4cc(Cl)cc(Cl)c4)n3)cn2)CC1 (stereo not drawn) [Example 240, 2-(1-((2-(3,5-dichlorophenyl)-6-((2-(4-(4-(dimethylamino)butan-2-yl)piperazin-1-yl)pyrimidin-5-yl)oxy)pyridin-4-yl)methyl)piperidin-4-yl)acetic acid] | 36.8% | 67.4% | 28.5%
14 | CNC(=O)OCCN1CCN(c2ncc(Oc3cc(CN4CCC(CC(=O)O)CC4)cc(-c4cc(Cl)cc(Cl)c4)n3)cn2)CC1 [Example 241, 2-(1-((2-(3,5-dichlorophenyl)-6-((2-(4-(2-((methylcarbamoyl)oxy)ethyl)piperazin-1-yl)pyrimidin-5-yl)oxy)pyridin-4-yl)methyl)piperidin-4-yl)acetic acid] | 43.4% | 73.1% | 32.4%
15 | CS(=O)(=O)CCCN1CCN(c2ncc(Oc3cc(CN4CCC(CC(=O)O)CC4)cc(-c4cc(Cl)cc(Cl)c4)n3)cn2)CC1 [Example 242, 2-(1-((2-(3,5-dichlorophenyl)-6-((2-(4-(3-(methylsulfonyl)propyl)piperazin-1-yl)pyrimidin-5-yl)oxy)pyridin-4-yl)methyl)piperidin-4-yl)acetic acid] | 16.4% | 55.5% | 31.9%
16 | CS(=O)(=O)CCCN1CCN(c2ccc(Oc3cc(CN4CCC(CC(=O)O)CC4)cc(-c4cc(Cl)cc(Cl)c4)n3)cn2)CC1 [Example 243, 2-(1-((2-(3,5-dichlorophenyl)-6-((6-(4-(3-(methylsulfonyl)propyl)piperazin-1-yl)pyridin-3-yl)oxy)pyridin-4-yl)methyl)piperidin-4-yl)acetic acid] | 37.9% | 46.8% | 14.6%
17 | COCCN1CCN(c2ccc(Oc3cc(CN4CCC(CC(=O)O)CC4)cc(-c4cc(Cl)cc(Cl)c4)n3)cn2)CC1 [Example 244, 2-(1-((2-(3,5-dichlorophenyl)-6-((6-(4-(2-methoxyethyl)piperazin-1-yl)pyridin-3-yl)oxy)pyridin-4-yl)methyl)piperidin-4-yl)acetic acid] | 14% | 61.4% | 6.34%
18 | COCCN1CCN(c2ncc(Oc3cc(CN4CCC(CNC(C)=O)CC4)cc(-c4cc(Cl)cc(Cl)c4)n3)cn2)CC1 [Example 245, N-((1-((2-(3,5-dichlorophenyl)-6-((2-(4-(2-methoxyethyl)piperazin-1-yl)pyrimidin-5-yl)oxy)pyridin-4-yl)methyl)piperidin-4-yl)methyl)acetamide] | 53.3% | 53.9% | 24.1%
19 | NS(=O)(=O)CCCN1CCN(c2ncc(Oc3cc(CN4CCC(CC(=O)O)CC4)cc(-c4cc(Cl)cc(Cl)c4)n3)cn2)CC1 [Example 246, 2-(1-((2-(3,5-dichlorophenyl)-6-((2-(4-(3-sulfamoylpropyl)piperazin-1-yl)pyrimidin-5-yl)oxy)pyridin-4-yl)methyl)piperidin-4-yl)acetic acid] | 50.8% | 39.9% | 24.6%
20 | COCCN1CCN(c2ncc(Oc3cc(CN4CCC(CC(=O)O)CC4)cc(-c4cc(Cl)cc(Cl)c4)n3)cn2)CC1 [Example 247, 2-(1-((2-(3,5-dichlorophenyl)-6-((2-(4-(2-methoxyethyl)piperazin-1-yl)pyrimidin-5-yl)oxy)pyridin-4-yl)methyl)piperidin-4-yl)acetic acid] | 50% | 49.7% | 31.1%
21 | CNC(=O)OCC1CCN(Cc2cc(Oc3cnc(N4CCN(CCC(=O)O)CC4)nc3)nc(-c3cc(Cl)cc(Cl)c3)c2)CC1 [Example 248, 3-(4-(5-((6-(3,5-dichlorophenyl)-4-((4-(((methylcarbamoyl)oxy)methyl)piperidin-1-yl)methyl)pyridin-2-yl)oxy)pyrimidin-2-yl)piperazin-1-yl) propanoic acid] | 81.2% | 49.6% | 34.8%
22 | CC(=O)NCC1CCN(Cc2cc(Oc3ccc(N4CCN(CCCC(=O)O)CC4)nc3)nc(-c3cc(Cl)cc(Cl)c3)c2)CC1 [Example 249, 4-(4-(5-((4-((4-(acetamidomethyl)piperidin-1-yl)methyl)-6-(3,5-dichlorophenyl)pyridin-2-yl)oxy)pyridin-2-yl)piperazin-1-yl)butanoic acid] | 48.6% | 51.4% | 32.5%
